Assay results: patent publication US12503438B2, “Compounds for the treatment of kinase-dependent disorders” (Exelixis, Inc., priority 2019, dated 2025)

Columns and labels:
Human Axl = biological target: T1, Human Axl (Homo sapiens, UniProt P30530, Q764R); test: Human AXL kinase assay (33P-phosphoryl transfer radiometric, KinaseProfiler); conditions: biochemical activity; 10 μM ATP
T1 construct: Human Axl (residues H473-A894 with Q764R, 161 nM); purchased Eurofins Pharma Discovery Services UK Limited (KinaseProfiler service)
T1 sequence (P30530 473-894 Q764R): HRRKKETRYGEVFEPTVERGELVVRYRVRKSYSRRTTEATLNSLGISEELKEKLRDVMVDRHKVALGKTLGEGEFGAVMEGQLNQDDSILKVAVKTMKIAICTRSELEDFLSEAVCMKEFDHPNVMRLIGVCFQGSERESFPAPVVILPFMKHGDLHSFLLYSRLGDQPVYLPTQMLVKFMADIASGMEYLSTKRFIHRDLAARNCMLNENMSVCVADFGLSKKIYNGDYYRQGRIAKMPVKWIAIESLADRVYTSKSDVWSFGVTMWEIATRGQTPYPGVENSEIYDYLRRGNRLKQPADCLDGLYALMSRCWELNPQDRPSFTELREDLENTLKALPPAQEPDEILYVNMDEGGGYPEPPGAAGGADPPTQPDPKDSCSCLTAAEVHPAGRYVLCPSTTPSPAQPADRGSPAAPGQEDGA
Procedure: Kinase activity and compound inhibition were investigated using the ^33P-Phosphoryl transfer radiometric kinase assay, performed using the KinaseProfiler™ service of Eurofins Pharma Discovery Services UK Limited. Dose-response experiments were performed using nine compound concentrations in a 96-well microtiter plate. For each assay, all compounds were prepared to a 50× final assay concentration (50 μM) in 100% DMSO, then diluted in a half-log series, with the final top concentration at 1 μM. This working stock of the compound was added to the assay well as the first component in the reaction, followed by the remaining components as detailed in the following assay protocols below. The positive control wells (100% kinase activity) contain all components of the reaction including 2% DMSO (control for solvent effects), except the compound of interest. Blank wells contain all components of the reaction, with the reference inhibitor, staurosporine. This reference compound was used to abolish kinase activity and generated the 0% kinase activity base-line. IC50 values were calculated by nonlinear regression analysis using the sigmoidal dose-response (variable slope) curve fit on XLFit version 5.3 (ID Business Solutions).
Human Axl (residues H473-A894 with Q764R, 161 nM) was incubated with 8 mM MOPS pH 7.0, 0.2 mM EDTA, 250 μM KKSRGDYMTMQIG, 10 mM magnesium acetate, and 10 μM [y-^33P-ATP]. The reaction was initiated by the addition of the Mg/ATP mix. After incubation for 40 minutes at room temperature, the reaction was stopped by the addition of phosphoric acid to a concentration of 0.5%. A reaction aliquot of 10 μL was then spotted onto a P30 filtermat and washed four times for 4 minutes in 0.425% phosphoric acid and once in methanol prior to drying and scintillation counting. Incorporated ^33P was measured using the Wallac Microbeta scintillation counter (Perkin Elmer).

Mer = biological target: T2, Mer (Homo sapiens, UniProt Q12866); test: Mer autophosphorylation ELISA in transient transfected 293A cells; type: cell-based; conditions: cellular activity; MERTK-transfected 293A cells, phospho-Mer ELISA
T2 construct: host or cells: 293A cells (Thermo Fisher #R70507)
T2 sequence (Q12866 21-999): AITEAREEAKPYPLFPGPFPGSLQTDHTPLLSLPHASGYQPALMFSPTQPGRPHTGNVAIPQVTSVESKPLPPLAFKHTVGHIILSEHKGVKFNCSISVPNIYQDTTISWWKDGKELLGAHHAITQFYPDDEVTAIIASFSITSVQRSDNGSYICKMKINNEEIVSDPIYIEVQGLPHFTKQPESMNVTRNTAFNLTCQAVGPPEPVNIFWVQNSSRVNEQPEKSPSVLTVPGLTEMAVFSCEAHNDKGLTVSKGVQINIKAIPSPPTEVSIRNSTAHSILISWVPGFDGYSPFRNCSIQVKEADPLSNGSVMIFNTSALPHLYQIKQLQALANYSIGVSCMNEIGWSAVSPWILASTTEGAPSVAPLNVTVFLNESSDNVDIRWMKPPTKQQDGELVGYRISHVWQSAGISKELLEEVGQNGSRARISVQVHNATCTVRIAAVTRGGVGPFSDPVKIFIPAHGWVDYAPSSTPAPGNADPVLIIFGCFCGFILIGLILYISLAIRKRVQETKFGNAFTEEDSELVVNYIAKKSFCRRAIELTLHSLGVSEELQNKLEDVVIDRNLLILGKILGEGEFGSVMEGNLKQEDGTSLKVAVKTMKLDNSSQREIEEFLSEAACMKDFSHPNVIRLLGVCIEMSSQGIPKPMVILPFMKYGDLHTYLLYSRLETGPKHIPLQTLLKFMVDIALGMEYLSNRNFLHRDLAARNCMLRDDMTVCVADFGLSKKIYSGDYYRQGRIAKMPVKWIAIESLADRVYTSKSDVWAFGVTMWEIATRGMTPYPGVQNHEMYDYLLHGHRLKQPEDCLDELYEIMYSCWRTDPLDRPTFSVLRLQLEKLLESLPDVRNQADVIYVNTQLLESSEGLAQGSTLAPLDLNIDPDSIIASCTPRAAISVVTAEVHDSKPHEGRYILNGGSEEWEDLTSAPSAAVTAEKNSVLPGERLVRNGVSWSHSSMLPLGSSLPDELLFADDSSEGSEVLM
Procedure: 293A cells (Thermo Fisher #R70507) were seeded at 1.5×10^6 cells/well onto 100 mm dish (Greiner #664169), in DMEM (Thermo Fisher #11995-040) containing 10% FBS (Thermo Fisher #26140-079), 1% MEM NEAA (Thermo Fisher #11140-050), 1% GlutaMax (Thermo Fisher #35050-061), and 1% Penicillin Streptomycin (Thermo Fisher #15140-122). 293A cells were incubated at 37° C., 5% CO2 for 24 h and then transfected with 6 μg MERTK DNA (Genecopoeia #EX-Z8208-M02) using TransIT LT1 transfection reagent (Mirus-Bio #MIR2305). After 24 h incubation, the transfected 293A cells were seeded at 1×10^5 cells/well onto 96-well plates (Corning #3904) in DMEM growth medium overnight. Test compounds were serially diluted to produce an 8-point dose curve in fresh serum-free medium to a final concentration of 0.3% DMSO (vehicle) and added to the cells and incubated for 1 h. Cells were then immediately lysed with 150 μL of cold 1× lysis buffer [20 mM Tris, 137 mM sodium chloride, 2 mM EDTA, 10% glycerol, 1% NP-40 alternative, 1 mM activated sodium orthovanadate, 1 mM PefaBloc SC (Sigma-Aldrich #11429868001), protease/phosphatase inhibitor tablet (Thermo Fisher #A32959)]. Lysates were clarified by centrifugation and 50 μL/well added into the human phospho-Mer DuoSet IC ELISA (R&D Systems #DYC2579-2). Assay was performed according to manufacturer's instructions and sample phospho-Mer concentrations were extrapolated using human phospho-Mer control (R&D Systems #841793) as a standard. Positive control wells (100% activity) contained DMSO-treated cell lysates. Negative control wells (0% activity) contained reference inhibitor-treated cell lysates. IC50 values were calculated by nonlinear regression analysis using a 4-parameter logistic curve fit in ActivityBase XE (IDBS).

Row | IC50 (Human Axl) | IC50 (Mer) | SMILES
1 | ≤ 10 nM | ≤ 10 nM | COCCn1cc(-c2ccc3c(Oc4ccc(NC(=O)C5(C(=O)Nc6ccc(F)cc6)CC5)cc4)ccnc3c2)cn1 [Compound 10, 1-N′-(4-Fluorophenyl)-1-N-[4-[7-[1-(2-methoxyethyl)pyrazol-4-yl]quinolin-4-yl]oxyphenyl]cyclopropane-1,1-dicarboxamide]
2 | ≤ 10 nM | ≤ 10 nM | Cn1cc(-c2ccc3c(Oc4ccc(NC(=O)C5(C(=O)Nc6ccc(F)cc6)CC5)cc4)ccnc3c2)cn1 [Compound 11, 1-N′-(4-Fluorophenyl)-1-N-[4-[7-(1-methylpyrazol-4-yl)quinolin-4-yl]oxyphenyl]cyclopropane-1,1-dicarboxamide]
3 | 10 to 100 nM | 100 to 300 nM | O=C(Nc1ccc(F)cc1)C1(C(=O)Nc2ccc(Oc3ccnc4cc(-c5cnn(C(F)(F)F)c5)ccc34)cc2)CC1 [Compound 12, 1-N′-(4-Fluorophenyl)-1-N-[4-[7-[1-(trifluoromethyl)pyrazol-4-yl]quinolin-4-yl]oxyphenyl]cyclopropane-1,1-dicarboxamide]
4 | 10 to 100 nM | 10 to 100 nM | O=C(Nc1ccc(F)cc1)C1(C(=O)Nc2ccc(Oc3ccnc4cc(-c5cnn(C(F)F)c5)ccc34)cc2)CC1 [Compound 13, 1-N-[4-[7-[1-(Difluoromethyl)pyrazol-4-yl]quinolin-4-yl]oxyphenyl]-1-N′-(4-fluorophenyl)cyclopropane-1,1-dicarboxamide]
5 | ≤ 10 nM | ≤ 10 nM | O=C(Nc1ccc(F)cc1)C1(C(=O)Nc2ccc(Oc3ccnc4cc(-c5cnn(CCF)c5)ccc34)cc2)CC1 [Compound 14, 1-N-[4-[7-[1-(2-Fluoroethyl)pyrazol-4-yl]quinolin-4-yl]oxyphenyl]-1-N′-(4-fluorophenyl)cyclopropane-1,1-dicarboxamide]
6 | ≤ 10 nM | ≤ 10 nM | O=C(Nc1ccc(F)cc1)C1(C(=O)Nc2ccc(Oc3ccnc4cc(-c5cnn(CC(F)F)c5)ccc34)cc2)CC1 [Compound 15, 1-N-[4-[7-[1-(2,2-Difluoroethyl)pyrazol-4-yl]quinolin-4-yl]oxyphenyl]-1-N′-(4-fluorophenyl)cyclopropane-1,1-dicarboxamide]
7 | 10 to 100 nM | 10 to 100 nM | O=C(Nc1ccc(F)cc1)C1(C(=O)Nc2ccc(Oc3ccnc4cc(-c5cnn(CC(F)(F)F)c5)ccc34)cc2)CC1 [Compound 16, 1-N′-(4-Fluorophenyl)-1-N-[4-[7-[1-(2,2,2-trifluoroethyl)pyrazol-4-yl]quinolin-4-yl]oxyphenyl]cyclopropane-1,1-dicarboxamide]
8 | 10 to 100 nM | 10 to 100 nM | Cn1ccc(-c2ccc3c(Oc4ccc(NC(=O)C5(C(=O)Nc6ccc(F)cc6)CC5)cc4)ccnc3c2)n1 [Compound 17, 1-N′-(4-Fluorophenyl)-1-N-[4-[7-(1-methylpyrazol-3-yl)quinolin-4-yl]oxyphenyl]cyclopropane-1,1-dicarboxamide]
9 | ≤ 10 nM | ≤ 10 nM | O=C(Nc1ccc(F)cc1)C1(C(=O)Nc2ccc(Oc3ccnc4cc(-c5cnn(CCO)c5)ccc34)cc2)CC1 [Compound 18, 1-N′-(4-Fluorophenyl)-1-N-[4-[7-[1-(2-hydroxyethyl)pyrazol-4-yl]quinolin-4-yl]oxyphenyl]cyclopropane-1,1-dicarboxamide]
10 | ≤ 10 nM | ≤ 10 nM | O=C(Nc1ccc(F)cc1)C1(C(=O)Nc2ccc(Oc3ccnc4cc(-c5cnn(CCN6CCOCC6)c5)ccc34)cc2)CC1 [Compound 19, 1-N′-(4-Fluorophenyl)-1-N-[4-[7-[1-(2-morpholin-4-ylethyl)pyrazol-4-yl]quinolin-4-yl]oxyphenyl]cyclopropane-1,1-dicarboxamide]
11 | ≤ 10 nM | ≤ 10 nM | CCn1cc(-c2ccc3c(Oc4ccc(NC(=O)C5(C(=O)Nc6ccc(F)cc6)CC5)cc4)ccnc3c2)cn1 [Compound 20, 1-N-[4-[7-(1-Ethylpyrazol-4-yl)quinolin-4-yl]oxyphenyl]-1-N′-(4-fluorophenyl)cyclopropane-1,1-dicarboxamide]
12 | 10 to 100 nM | ≤ 10 nM | O=C(Nc1ccc(F)cc1)C1(C(=O)Nc2ccc(Oc3ccnc4cc(-c5cnn(C6CC6)c5)ccc34)cc2)CC1 [Compound 22, 1-N-[4-[7-(1-Cyclopropylpyrazol-4-yl)quinolin-4-yl]oxyphenyl]-1-N′-(4-fluorophenyl)cyclopropane-1,1-dicarboxamide]
13 | 10 to 100 nM | 10 to 100 nM | CC(C)(C)n1cc(-c2ccc3c(Oc4ccc(NC(=O)C5(C(=O)Nc6ccc(F)cc6)CC5)cc4)ccnc3c2)cn1 [Compound 23, 1-N-[4-[7-(1-tert-Butylpyrazol-4-yl)quinolin-4-yl]oxyphenyl]-1-N′-(4-fluorophenyl)cyclopropane-1,1-dicarboxamide]
14 | ≤ 10 nM | ≤ 10 nM | O=C(Nc1ccc(F)cc1)C1(C(=O)Nc2ccc(Oc3ccnc4cc(-c5cnn(C6COC6)c5)ccc34)cc2)CC1 [Compound 24, 1-N′-(4-Fluorophenyl)-1-N-[4-[7-[1-(oxetan-3-yl)pyrazol-4-yl]quinolin-4-yl]oxyphenyl]cyclopropane-1,1-dicarboxamide]
15 | 10 to 100 nM | 10 to 100 nM | O=C(Nc1ccc(F)cc1)C1(C(=O)Nc2ccc(Oc3ccnc4cc(-c5cccnc5)ccc34)cc2)CC1 [Compound 25, 1-N′-(4-Fluorophenyl)-1-N-[4-(7-pyridin-3-ylquinolin-4-yl)oxyphenyl]cyclopropane-1,1-dicarboxamide]
